According to patent publication US9334314B2, “Peptide compounds derived from melanotransferrin and uses thereof” (Theratechnologies Inc., priority 2011, dated 2016):

What was measured:
[1] = test system: Human NCI-H460 lung carcinoma tumor xenograft; assay: Xenograft model antitumor assay, NCI-H460; format: in vivo, nude mice; conditions: 40 mg/Kg/day; for inhibition of NCI-460 tumor growth: nude mice (FIG. 5A); for NCI-460 tumor growth: nude mice (FIGS. 3A to 3C)
Protocol: (§1) For tumor cell inoculation in nude mice, U-87 MG or NCI-H460 cells were harvested by trypsinization using a trypsin/EDTA solution. Cells were washed two times with phosphate-buffered saline Ca^2+—Mg^2+ free (PBS-CMF) and centrifuged. The resulting pellet was resuspended in 1% methyl-cellulose in serum-free EMEM at a concentration of 2.5×10^6 cells per 100 μL. Specific pathogen-free, female Crl:CD-1®-nuBR nude mice were anesthetized by O2/isoflurane inhalation and tumors were established by subcutaneous injection of 100 μL from cell suspension into the right flank. Tumors were measured in O2/isoflurane anesthetized mice twice a week using a digital caliper and tumor volume was calculated as: π/6×length×width^2. When the first mouse from control group held a tumor reaching 1000 mm^3, tumors were photographed and mice from every group were sacrificed. Experiments were performed on 8 animals for each group. Recombinant sMTf treatment toxicity was evaluated by monitoring the body weight of control and treated mice, considering that a weight loss>20% results in a toxic effect.

[2] = test system: in vivo neovascularisation induced by the growth factors FGF-2 and VEGF; assay: Matrigel plug angiogenesis assay; conditions: induced by FGF-2 and VEGF, nude mice, 7 days (FIG. 7)
Protocol: Angiogenesis is considered to be indicated by the growth of blood vessels from subcutaneous tissue into a solid piece of Matrigel™. Specific pathogen-free, female Crl:CD-1®-nuBR nude mice were obtained from Charles River Laboratories (Lasalle, QC). All of the mice used were 5-10 weeks of age. Prior to injection, heparin was incubated with or without bFGF (250 ng/mL) and VEGF165 (200 ng/mL) for 5 min, then 1 mL of MEM was added and the mixture diluted into phenol red-free Matrigel™ on ice for a final concentration of 12.4 μg/mL heparin. Then, specific pathogen-free, female Crl:CD-1®-nuBR nude mice were subcutaneously injected under anesthesia in the right flank with 0.5 mL of Matrigel™ alone or with Matrigel™ containing bFGF and VEGF. After 7 days, mice were sacrificed and Matrigel™ implants were harvested, washed with PBS and photographed. The remaining implants were immediately frozen and lyophilized overnight in order to evaluate the hemoglobin (Hb) concentrations. Testing of anti-angiogenic substances was initiated at the time of Matrigel™ implantation. Samples were then crushed and resuspended in 0.1% Triton™ X-100. Samples were mixed frequently for 1 h and centrifuged at 12,000×g for 15 min to remove particles. The concentration of hemoglobin (Hb) in the supernatant was then determined directly by measuring the absorbance at 405 nm and compared with a standard curve of purified Hb Hemoglobin content was expressed in μg Hb/mg of dried sample.

[3] = test system: Human U87 glioblastoma tumor xenograft; assay: Xenograft model antitumor assay, U87; format: in vivo, nude mice; conditions: 40 mg/Kg/day; for inhibition of U87 tumor growth: nude mice (FIG. 5B); for U87 tumor growth: nude mice (FIGS. 4A and 4B)
Protocol: as §1

[4] = test system: HMEC-1 endothelial cells; assay: In vitro cell migration, HMEC-1 (Transwell / modified Boyden chambers); format: cell-based; conditions: various concentrations, dose-dependent manner (FIG. 2C)
Protocol: (§2) HMEC-1 and NCI-H460 cell migration was performed using Transwell filters (8 μm pore size) pre-coated with 0.15% gelatin for 2 hours at 37° C. or overnight at 4° C. The Transwell filters were washed once with PBS and assembled in 24-well plates. To study the effect of sMTf-derived peptides on cell migration, the lower chambers were filled with 300 μL of serum-free cell culture medium with or without various concentrations of peptides (2×). […] Approximately 50 000 cells (HMEC-1) and 100 000 cells (NCI-H460) were resuspended in 100 μL of serum free medium and added into the upper chamber of each Transwell. Then, 400 μL of serum free medium were added into the lower chamber with or without various concentrations of peptides (2×). After 1 hour incubation, 300 μL of cell culture medium containing 20% serum were added in the lower chamber to stimulate cell migration (final peptide concentration 1×). The plates were then placed at 37° C. in 5% CO2195% air for 4 hours (HMEC-1) or 18 hours (NCI-H460). Cells that had migrated to the lower surface of the filters were fixed for 30 minutes with 10% formalin, stained 30 minutes with 0.1% crystal violet/20% MeOH, and washed twice with PBS. […] The cell migration was quantified in four fields per filters at 50× magnification using microscopy computer-assisted imaging (Northern Eclipse™ software). Results are expressed as a percentage of cell migration of treated cells compared to untreated cells.

[5] = test system: NCI-H460 pulmonary carcinoma cells; assay: In vitro cell migration, NCI-H460 (Transwell / modified Boyden chambers); format: cell-based, human; conditions: various concentrations, dose-dependent manner (FIG. 2D)
Protocol: as §2

[6] = molecular target: plasminogen activation by urokinase-type plasminogen activator (uPA) (Homo sapiens, UniProt P00749); assay: In vitro plasminogen activation by uPA (colorimetric VLK-pNA assay); format: biochemical; conditions: various concentrations of peptide (FIG. 1B)
Protocol: The in vitro enzymatic activity of uPA was measured using a colorimetric assay. To study the effect of sMTf-derived peptides on plasminogen activation by uPA, the reaction was performed in plasminogen activation buffer (50 mM Tris/HCl (pH 7.5), 150 mM NaCl and 50 mM CaCl2) in a final volume of 200 μL. This incubation medium also contained 30 nM plasminogen and 15 μg of the chromogenic plasmin substrate D-Val-Leu-Lys p-nitroanilide (VLK-pNA). The reaction was started by the addition of 1 ng of uPA. In this assay, the cleavage of VLK-pNA results in a p-nitroaniline molecule that absorbs at 405 nm. The reaction product was monitored at 37° C. during 3 hours every 2 minutes using a Microplate Thermomax™ Autoreader. The velocity of the VLK-pNA hydrolysis reaction was calculated and results are expressed in mAU/min.

[7] = test system: HMEC-1 endothelial cells; conditions: up to 50 μM, 24 hours incubation (FIG. 6)
Protocol: (§3) sMTf-derived peptides cellular toxicity on HMEC-1 and NCI-H460 were performed using [methyl-^3H]-thymidine incorporation assay. […] Approximately 5000 cells (HMEC-1 and NCI-H460) were resuspended with 200 μL of fresh culture medium, seeded into white 96-wells plate and placed at 37° C. in 5% CO2/95% air. After 24 hours, the medium was removed and 200 μL of serum-free cell culture medium was added to synchronize the cells. After another 24 hours, the medium was removed and 200 μL of fresh complete medium with or without various peptide concentrations were added. After 24 hours incubation with the peptides, the medium was remove and 200 μL (0.5 μCi) of [methyl-^3H]-thymidine was added and placed at 37° C. in 5% CO2/95% air for 4 hours. Then, the wells were gently washed twice with PBS at 37° C., incubated with 200 μL of EtOH:Acetic acid (3:1) for 10 minutes and dried under the hood. 50 μL of Microscint™-O was added per well, the plate was sealed, agitated for 3 minutes, and read on the microplate scintillation and luminescence counter (TopCount NXT, Packard). Results are expressed as a percentage of cell viability of treated cells compared to untreated cells.

[8] = test system: NCI-H460 pulmonary carcinoma cells; conditions: up to 50 μM, 24 hours incubation (FIG. 6)
Protocol: as §3

Substance	inhibition of NCI-460 tumor growth [1]	NCI-460 tumor growth [1]	in vivo neovascularisation of Matrigel implant (hemoglobin content) [2]	inhibition of U87 tumor growth [3]	U87 tumor growth [3]	migration of HMEC-1 cells [4]	migration of NCI-H460 cells [5]	plasminogen cleavage by uPA [6]	cellular toxicity on HMEC-1 cells [7]	cellular toxicity on NCI-H460 cells [8]
Ac-YSGAFRMLAEGAGDVAFVKHKKK-NH2 (Ac-YSGAFRMLAEGAGDVAFVKHKKK-NH2) [SEQ ID NO: 9]	42%	inhibit NCI-460 tumor growth	inhibit in vivo neovascularisation	–	–	–	–	–	–	–
Ac-F-R-C-L-V-E-N-A-G-D-V-A-F-V-R-H-K-K-K-NH2 (Ac-FRCLVENAGDVAFVRHKKK-NH2) [SEQ ID NO: 5]	45%	inhibit NCI-460 tumor growth	inhibit in vivo neovascularisation	39%	inhibit U87 tumor growth	–	–	–	–	–
Ac-F-R-C-L-V-E-N-R-G-D-V-P-F-V-K-R-E-R-F-NH2 (Ac-FRCLVENRGDVPFVKRERF-NH2) [SEQ ID NO: 13]	–	–	inhibit in vivo neovascularisation	–	–	inhibit the migration	inhibit the migration	–	–	–
Ac-FRCLVENAGDVAFVRH-NH2 [SEQ ID NO: 2, Ac-F-R-C-L-V-E-N-A-G-D-V-A-F-V-R-H-NH2]	–	–	–	–	–	inhibit the migration	inhibit the migration	stimulates plasminogen cleavage by uPA in a dose-dependent manner	do not demonstrate any cellular toxicity	do not demonstrate any cellular toxicity
Ac-F-R-C-L-V-E-N-R-G-D-V-P-F-V-T-R-I-R-NH2 (Ac-FRCLVENRGDVPFVTRIR-NH2) [SEQ ID NO: 15]	37%	–	inhibit in vivo neovascularisation	74%	inhibit U87 tumor growth	inhibit the migration	inhibit the migration	–	–	–
SEQ ID NO: 10: sMTf-derived peptide; sequence shown only as a drawing in Table II (FRCLVENAGDVAFVRHKKKKKKKHRVFAVDGANEVLCRF)	69%	inhibit NCI-460 tumor growth	–	–	–	–	–	–	–	–
Ac-F-R-C-L-V-E-N-A-G-D-V-P-F-V-R-H-NH2 (Ac-FRCLVENAGDVPFVRH-NH2) [SEQ ID NO: 7]	–	–	inhibit in vivo neovascularisation	–	–	–	–	–	–	–
